Test results published in patent US4539402A, “Quinazolinone derivatives” (Troponwerke GmbH & Co., priority 1982, dated 1985).
Where two headings read alike, the source gives them in different places.

Assays:
Format in all cases: in vivo
[1] = Randall-Selitto test (analgesic action); conditions: Rattus norvegicus, po; perorally, rats
[2] = benzoquinone test (analgesic action); conditions: Mus musculus, po; perorally; mice
carrageenan oedema = assay: antiphlogistic action, carrageenan oedema (modified method of Winter et al.); conditions: po; peroral; pure λ-carrageenan as 0.25% suspension in physiological saline
Description: Exp. Biol. Med. 111, 544 (1962), with the modification that pure λ-carrageenan as a 0.25% strength suspension in physiological saline solution was used for oedema provocation. The following ED50 values, for example, were determined using this procedure: […]

orientation motility = assay: influence on orientation motility in mice (sedative action); conditions: Mus musculus, po, read-out: ED50 (influence on orientation motility, sedative action)
Description: Influence on orientation motility in mice was tested to determine the sedative action; an ED50 of 0.5 mg/kg perorally was found for the compound of Example 4.

Row | Compound | ED50 (carrageenan oedema) [mg/kg] | ED50 (orientation motility) [mg/kg] | further results
1 | O=C1c2ccccc2N(c2cccc([N+](=O)[O-])c2)C2=NCCN12 [Example 4, 10-(3-Nitrophenyl)-2,3-dihydroimidazo-[2,1-b]-quinazolin-5(10H)-one] | 1.3 | – | ED50 [1]: 3.4 mg/kg; ED50 [2]: 3.1 mg/kg; ED50 (orientation motility; perorally, mice): 0.5 mg/kg
2 | O=C1c2ccccc2N(c2cccc(C(F)(F)F)c2)C2=NCCN12 [Example 5, 10-(3-Trifluoromethylphenyl)-2,3-dihydroimidazo-[2,1-b]-quinazolin-5(10H)-one] | 25.2 | – | –
3 | Nc1cccc(N2C3=NCCN3C(=O)c3ccccc32)c1 [Example 9, 10-(3-Aminophenyl)-2,3-dihydroimidazo-[2,1-b]-quinoazolin-5(10H)-one] | 3.1 | – | –
4 | CN(C)CCCN1c2ccccc2Sc2ccc(Cl)cc21 [chlorpromazine] | – | 3.05 | –
5 | CN1C(=O)CN=C(c2ccccc2)c2cc(Cl)ccc21 [diazepam] | – | 2.8 | –
